The results in this text go back to ChEMBL document CHEMBL3091278 (Bioorg Med Chem Lett, 2013).

The nature of this experiment: Inhibition of Clostridium perfringens carbonic anhydrase preincubated for 15 mins by stopped flow CO2 hydration assay.

In turn, `O=S(=O)([O-])[O-].[Na+].[Na+]` [SODIUM SULFATE ANHYDROUS] registered an inhibitory constant (Ki) of 7.9 mM.
Take `F[B-](F)(F)F.[Na+]` [SODIUM TETRAFLUOROBORATE]: the Ki is > 200 mM.
In turn, `CCN(CC)C(=S)S` [DITIOCARB SODIUM] registered an inhibition constant Ki of 0.36 mM.
For `[I-].[Na+]` [SODIUM IODIDE], the inhibitory constant (Ki) is 63.4 mM.
On to `O=NO` [SODIUM NITRITE], for which the inhibition constant (Ki) worked out at 4.1 mM.
In turn, `OB(O)c1ccccc1` [PHENYLBORONIC ACID] displayed an inhibition constant (Ki) of 0.075 mM.
`O=C([O-])O.[Na+]` [SODIUM BICARBONATE] returned a Ki of 2.1 mM.
The figure for `[F-].[Na+]` [SODIUM FLUORIDE] is 4.8 mM; for `O=[Se](=O)(O)O` [SODIUM SELENATE] it is 0.47 mM.
In turn, `NS(=O)(=O)O` [SULFAMATE] yielded an inhibitory constant (Ki) of 0.009 mM.
Turning to `O=S([O-])O.[Na+]` [SODIUM BISULFITE], the Ki is 4.9 mM.
Compound `O=BOB(O)OB(O)OB=O` [SODIUM TETRABORATE] displayed a Ki of 2.5 mM.
On to `O=S(=O)(O)OOS(=O)(=O)O` [SODIUM PERSULFATE], for which the Ki came to 9.2 mM.
The compound `O=[N+]([O-])[O-].[Na+]` [SODIUM NITRATE] came in with a Ki of 4.6 mM.
As to `O=[As](O)(O)c1ccccc1` [PHENYLARSONIC ACID], the affinity corresponds to a Ki of 0.007 mM.
The compound `[N-]=[N+]=[N-]` [SODIUM AZIDE] displayed an inhibition constant Ki of 4.2 mM.
Take `[O-][Cl+3]([O-])([O-])O` [SODIUM PERCHLORATE]: the Ki is > 200 mM.
The figure for `O=P(O)(O)OP(=O)(O)O` [SODIUM PYROPHOSPHATE] is 2.7 mM; for `N=C=S` [SODIUM ISOTHIOCYANATE] it is 0.83 mM; for `S` [SODIUM HYDROSULFIDE] it is 4 mM.
For the compound `S=C(S)S` [SODIUM CARBONOTRITHIOATE], the inhibition constant (Ki) turned out to be 1 mM.
`[Br-].[Na+]` [SODIUM BROMIDE] displayed an inhibition constant (Ki) of 21.5 mM.
Compound `O=C([O-])[O-].[Na+].[Na+]` [SODIUM CARBONATE] showed an inhibition constant Ki of 0.65 mM.
In turn, `CC(=O)Nc1nnc(S(N)(=O)=O)s1` [ACETAZOLAMIDE] displayed a Ki of 4.9e-05 mM.
Compound `[Cl-].[Na+]` [SODIUM CHLORIDE] yielded a Ki of 4.3 mM.
The compound `O=[Te](=O)(O)O` [SODIUM TELLURATE] yielded a Ki of 3.3 mM.
`O=S(=O)(O)ONOS(=O)(=O)O` [SODIUM IMINODISULFATE] gave an inhibitory constant (Ki) of 4.9 mM.
